# Source: patent US11701360B2, “Composition for inducing differentiation and protection of neural stem cells and method for inducing neuro-regeneration using the same composition” (GENUV Inc., priority 2017, dated 2023)
# Experiments:
# 5XFAD mouse [1] = assay: Tuj1 staining in the somatosensory cortex, 5XFAD mouse; assay type: in vivo
# Method: Anti-Tuj1 antibodies were added to the brain tissue slides of 5XFAD mouse in Example 8 and incubated at 4° C. for 1 day, after which the tissue slides were fluorescently stained by incubating with Fluorescein isothiocyanate (FITC)-secondary antibodies (Invitrogen, cat #. A21121) at room temperature for 1 hour. In FIG. 15, the areas marked with arrows (→) indicate cells stained with Tuj1 and the areas marked with arrowheads (▾) indicate plaques formed by amyloid-beta aggregation. Plaques were present in both vehicle-treated and trametinib-treated groups.
# 5XFAD mouse [2] = assay: BrdU staining in the hippocampal dentate gyrus, 5XFAD mouse; conditions: orally daily for 28 days; vs vehicle
# Method: For the BrdU staining to be performed later, 50 mg/kg of BrdU (Sigma, cat #. B5002) was added to the daily dose for the last 5 days. The mouse was then anesthetized and perfused with PBS for the extraction of the brain. […] The other half of the hemispheres plus another 3 extracted mice brains per group were placed in 10% formalin solution at 4° C. for 1 day, which was then followed with the proceeding steps to allow good penetration of paraffin into the brain tissue. The brain tissues were immersed sequentially in 70%, 80%, 95%, 100% alcohol for 1 hour each for dehydration, then immersed in xylene 3 times for 1 hour each for clearing, and embedded in paraffin by placing in liquid paraffin 2 times for 1 hour each. After these procedures, the paraffin-embedded brain tissue (paraffin block) was cut into 5 μm sections, mounted on slides, and stored at room temperature. Prior to immunohistochemical staining, the tissues on the slides were rehydrated by sequentially immersing in xylene, 100%, 90%, 80%, 70%, 50% alcohol, and then water for 5 minutes each. […] The next day, the slides were incubated with anti-rabbit antibodies (Vector lab, cat #. PI-1000) at room temperature for 1 hour and then stained with DAB staining for the analysis of the neuronal distribution in the brain.
# [3] = tested on: mouse embryonic neural stem cells; assay: Immunocytochemistry analysis (Tuj1/DAPI staining); assay type: cell-based; conditions: 10 nM; 4 days
# Method: Tuj1 (Neuron specific class III beta-tubulin) is a neuron specific marker protein, which was conjugated to rhodamine to show fluorescent red, while DAPI binds to the cell DNA and stains the cell nuclei fluorescent blue. […] The medium was removed and the cells were washed with PBS. After fixing with 10% formaldehyde (Sigma cat #. HT501128) at room temperature for 10 minutes, they were washed again with PBS. They were permeabilized with 0.2% Triton X-100 (Sigma, cat #. 93443) at room temperature for 15 minutes, washed with PBS, and incubated with 10% BSA (Sigma, cat #. A2153)+1% normal goat serum (Vector lab, Burlingame, Calif., cat #. S1000) at room temperature for 1 hour. […] The solution was removed, washed with PBS, and incubated at room temperature for 1 hour with the secondary antibody (rhodamine-conjugated antibody) diluted in 1% BSA+1% normal goat serum at a ratio of 1:200. Then, the cells were washed with PBS, incubated with 5 μg/ml DAPI (Sigma, cat #. D9542) for 5 minutes, washed with PBS again, and mounted on a slide glass for analysis with a fluorescent microscope.
# pERK = assay: Western blotting of pERK in brain hemispheres, 5XFAD mouse; assay type: in vivo; conditions: 0.1 mg/kg and 1.0 mg/kg PO; vs vehicle
# 5XFAD mouse [4] = assay: NeuN immunohistochemical staining of brain slices, 5XFAD AD model mouse; assay type: in vivo; conditions: orally daily for 28 days; vs vehicle
# Method: The mouse was then anesthetized and perfused with PBS for the extraction of the brain. […] The other half of the hemispheres plus another 3 extracted mice brains per group were placed in 10% formalin solution at 4° C. for 1 day, which was then followed with the proceeding steps to allow good penetration of paraffin into the brain tissue. The brain tissues were immersed sequentially in 70%, 80%, 95%, 100% alcohol for 1 hour each for dehydration, then immersed in xylene 3 times for 1 hour each for clearing, and embedded in paraffin by placing in liquid paraffin 2 times for 1 hour each. After these procedures, the paraffin-embedded brain tissue (paraffin block) was cut into 5 μm sections, mounted on slides, and stored at room temperature. […]
# FIG. 13b indicates the number of NeuN stained cells counted and represented as the percentage of the number of cells per unit area in the motor cortex layer 5 region. Area samples were taken from 6 areas per mouse, 3 mice per group, so the number of cells counted was from a total of 18 areas.
# FIG. 14b indicates the number of NeuN stained cells counted and represented as the percentage of the number of cells per unit area in the dotted area of the hippocampal subiculum shown in FIG. 14a. Area samples were taken from 3 areas per mouse, 3 mice per group, so the number of cells counted was from a total of 9 areas.
# [5] = tested on: mouse embryonic neural stem cells; assay: qRT-PCR of neuronal marker mRNA expression in mouse embryonic NSC; assay type: cell-based
# Method: Isopropanol (Ducsan, GyunggiDo, Korea, cat #. 67-63-0) was added and mixed for RNA isolation, then centrifuged again to remove the supernatant and obtain the pellet. The RNA pellet was resuspended in 75% ethanol (Ducsan, cat #. 64-17-15), centrifuged, and the supernatant removed. The pellet was then resuspended in sterilized triple distilled water to obtain the mRNA, incubated for 10 minutes at 55° C., and stored at −80° C.
# Sterilized triple distilled water, 1 pM oligo dT, and 1 mM dNTP were added to the RNA and incubated for 5 minutes at 65° C. This was followed by the addition of 5× First-strand buffer, 10 mM DTT, and M-MLV reverse transcriptase and incubated at 42° C. for 1 hour, then at 72° C. for 15 minutes, and at 4° C. for 30 minutes. The synthesized cDNA was stored at −20° C.
# The term relative mRNA expression level signifies that in order to normalize each group's total RNA level, the mRNA expression level of each differentiation marker is divided by the expression level of GAPDH whose expression level is fairly constant across cells, and then the values of each test material are compared with those of the controls (undifferentiated NSC) in each group.
# 5XFAD mouse [6] = assay: Nissl, NeuN and DCX staining in the hippocampal dentate gyrus, 5XFAD mouse; assay type: in vivo; conditions: orally daily for 28 days
# Method: After placing in 0.1% cresyl violet (Sigma, cat #. C5042) solution at room temperature for 15 minutes, they were dehydrated by sequentially immersing in 80%, 90%, 100% alcohol, and xylene. Coverslips were put on the slides and the neurons examined.
# NeuN staining was performed by the same method as described in Example 8 as was DCX staining, but using anti-DCX antibodies (Santa Cruz, cat #. sc271390) instead of anti-NeuN antibodies.
# 5XFAD mouse [7] = assay: TUNEL assay of apoptosis in brain slices, 5XFAD mouse; assay type: in vivo; conditions: orally daily for 28 days; vs vehicle
# Method: The TUNEL assay stains the 3′-hydroxyl terminus of fragmented DNA, allowing the detection of cells undergoing apoptosis in the tissue.
# Specifically, the brain tissue slides were permeabilized with 20 μg/ml proteinase K solution for 10 minutes, incubated with equilibration buffer for 10 minutes, and then incubated with TdT solution at 37° C. for 1 hour.
# [8] = tested on: mouse adult neural stem cells; conditions: 10 nM and 100 nM; regardless of 10 μM amyloid-beta; 4 days
# Method: NSC were isolated from the subventricular zone of week 8 mouse brain, treated with 20 ng/ml human basic fibroblast growth factor (bFGF) and 20 ng/ml human epidermal growth factor (EGF) in an IPM medium, and cultured as a suspension in 24-well plates for 7 days.
# Two days before the isolation of single cells, 6-well plates were prepared by treating the wells with 10 μg/ml poly-L-ornithine solution and incubating overnight at room temperature for coating. The next day, poly-L-ornithine solution was removed and the plates were washed 3 times with sterilized triple distilled water. […] The culture solution used is N2 culture medium (supplemented with 20 ng/ml bFGF and 20 ng/ml EGF). Right before seeding, the coating solution was suctioned out, and the single cells were uniformly seeded into the culture plate before the plate dried up. Cells were allowed to attach to the plates for about one minute, and after checking that cells were sufficiently attached, an additional 1.5 ml of culture medium (N2 culture medium with 20 ng/ml bFGF and 20 ng/ml EGF) was added to the cells and cultured in a 37° C. incubator for 24 hours.
# Wells not treated with amyloid-beta were left to use as negative controls.
# Gibco's (Waltham, Mass.) human Aβ (1-42) was purchased to use for the amyloid-beta (Aβ), and the following process was followed to create oligomers. […] Then, it was dried for 10 minutes in a speed Vac, after which DMSO (Sigma, cat #.D2650) was added to bring the concentration to 5 mM and then lightly vortexed at room temperature for 10 minutes. […] The solution was incubated at 4° C. for 24 hours and then added into the cultured cells.
# The NCSs were cultured with the daily addition of EGF, bFGF, amyloid-beta, and test materials for 4 days.
# Aβ(1-40) and Aβ(1-42) = assay: ELISA of Aβ(1-40) and Aβ(1-42) in brain hemispheres, 5XFAD mouse; assay type: in vivo; conditions: orally daily for 28 days; vs vehicle
# 5XFAD mouse [9] = assay: Tuj1 and calbindin staining of cerebellar Purkinje cells, 5XFAD mouse; assay type: in vivo; conditions: particularly 0.1 mg/kg; vs vehicle
# Description: Two slides for Tuj1 staining and three for calbindin staining are shown for each treatment group.
# MEK 1, MEK2 = conditions: cited from earlier work
# [10] = tested on: mouse adult neural stem cells; assay: qRT-PCR of neuronal marker mRNA expression in mouse adult NSC; assay type: cell-based; conditions: 10 nM; 2 days
# [11] = tested on: mouse embryonic neural stem cells; assay: Morphology analysis (phase-contrast) of NSC differentiation in mouse embryonic neural stem cells; assay type: cell-based; conditions: 4 days of culture
# Method: Neural stem cells were isolated from the brain of a day 14.5 mouse embryo, treated with 10 ng/ml human basic fibroblast growth factor (bFGF) (Peprotech, Princeton, NG, cat #0.100-18B) and 20 ng/ml human epidermal growth factor (EGF) (Peprotech, cat #. AF-100-15) in a N2 culture medium, and cultured in suspension in a 25 cm2 flask (Nunc, Pittsburgh, Pa.) for 4 days. Formation of neurospheres was observed after 2 days.
# In order to isolate single cells, 6-well plates were prepared the day before by treating the wells with 15 μg/ml poly-L-ornithine (Sigma, St. Louis, Mo., cat #.P2533) solution and incubating overnight at 37° C. for coating. The day of the single cell isolation, poly-L-ornithine solution was removed, the plates were washed with PBS three times, and 10 μg/ml fibronectin (Gibco, Waltham, Mass., cat #. 33016015) solution was added and incubated at 37° C. for 2 hours for coating.
# Various concentrations of the compound of [Formula 1]
# FIG. 10b is the analysis of Tuj1 mRNA expression in the cells of each group.
# [12] = 1 nM, 10 nM, 25 nM, 100 nM, 2 days
structure (smiles),measurement,setting,value
"CC(=O)Nc1cccc(-n2c(=O)n(C3CC3)c(=O)c3c(Nc4ccc(I)cc4F)n(C)c(=O)c(C)c32)c1 [trametinib, N-(3-{3-cyclopropyl-5-[(2-fluoro-4-iodophenyl)amino]-6,8-dimethyl-2,4,7-trioxo-3,4,6,7-tetrahydropyrido[4,3-d]pyrimidin-1(2H)-yl}phenyl)acetamide]",lowest dose showing neural stem cell differentiation-inducing activity,5XFAD mouse [1],0.1 mg/kg/day
same,number of cells stained with BrdU in the dentate gyrus,5XFAD mouse [2],an increase in the number of cells stained with BrdU
same,neuron differentiation (Tuj1 staining),[3],increasingly active differentiation activity
same,protein level of pERK in the brain,pERK,considerably lower
same,"number of NeuN stained neurons, hippocampal subiculum",5XFAD mouse [4],significant increase in the number of neurons
same,"number of NeuN stained neurons, motor cortex layer 5",5XFAD mouse [4],significant increase in the number of neurons
same,mRNA expression of GABAergic neuron marker Gad1,[5]; [12],increased with the increase in concentration
same,mRNA expression of cholinergic neuron marker ChAT,[5]; [12],increased with the increase in concentration
same,mRNA expression of dopaminergic neuron marker TH,[5]; [12],increased with the increase in concentration
same,mRNA expression of motor neuron marker Isl1,[5]; [12],increased with the increase in concentration
same,"concentration at which differentiation-inducing effect is exerted (Tuj1, TH mRNA)",[5]; 4 days,1 nM
same,immature neurons stained by DCX in dentate gyrus,5XFAD mouse [6],seen to be present
same,number of cells with Type 2 or Type 3 morphology in dentate gyrus (Nissl and NeuN staining),5XFAD mouse [6],increased considerably
same,number of TUNEL stained cells in somatosensory cortex and subiculum,5XFAD mouse [7],significantly lower
same,differentiation of NSC into neurons (morphology),[8],readily induced the differentiation of NSC into neurons
same,amount of Aβ(1-42)/Aβ(1-40) in brain,Aβ(1-40) and Aβ(1-42),decreased
same,axon structure of cerebellar Purkinje cells,5XFAD mouse [9],increased axon arborization or at least with preserved axon structure
same,IC50,"MEK 1, MEK2",0.92 to 3.4 nM
same,mRNA expression of cholinergic neuron marker ChAT,[10],increased
same,mRNA expression of dopaminergic neuron marker TH,[10],increased
same,mRNA expression of neuronal marker Tuj1,[10],increased
same,differentiation of NSC into neurons (morphology),"[11]; 10 nM, 25 nM and 100 nM",readily induced the differentiation of NSC into neurons
same,concentration at which differentiation of NSC into neurons is seen,[11],≥ 10 nM
